These results are taken from patent publication US12480137B2, “Plants having increased tolerance to herbicides” (BASF SE, priority 2014, dated 2025).

Common to all, as to assay type: in vivo, Arabidopsis thaliana
The subject of test [1] is Cesa3_S983F, fpx1-3 mutant line. Description: Greenhouse phytotox, pre-emergent treatment. A digest of the protocol: (§1)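 First, M2 or M3 Arabidopsis plants are grown under greenhouse conditions. Next, they are treated with a cellulose biosynthesis-inhibiting triazine-2,4-diamine herbicide, e.g. N4-(4-chloro-3,5,6-trifluoro-2-pyridyl)-6-(1-fluoro-1-methyl-ethyl)-1,3,5-triazine-2,4-diamine. Finally, improved herbicide tolerance is evaluated.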

Test [2] has as its system Cesa3_S1037F, fpx1-2 mutant line. Description: Greenhouse phytotox, pre-emergent treatment. A digest of the protocol: as §1
Test [3] concerns Arabidopsis mutant line Cesa3_S983F. Description: Growth inhibition of Arabidopsis lines in 48-well plates, tolerance factor from IC50. To be noted: growth inhibition seven to ten days after seeding. The text has this:
(§2) For selection of cellulose biosynthesis inhibitor resistant plants EMS mutagenized seed populations of Arabidopsis thaliana are used. EMS mutagenized seed populations are either bought from Lehle Seeds (1102 South Industrial Blvd. Suite D, Round Rock, Texas USA) or are generated as described elsewhere (Heim D R, et. al. (1989) Plant Physiol. 90: 146-150). Causative mutations in CESA wildtype sequences (e.g. SEQ ID NO: 1 or 3) are identified as described by Scheible W R et. al. (2001, Proc. Natl. Acad. of Sci. 98: 10079-10084), McCourt et. al. (WO2013/142968) or with the use of next generation sequencing methods as described by Austin R S, et. al. (2011) Plant Journal 67: 715-725.
(§3) Selected Arabidopsis thaliana lines were assayed for improved resistance to azines like 6-cyclopentyl-N4-(2,3,4,5,6-pentafluorophenyl)-1,3,5-triazine-2,4-diamine; 6-(1-fluoro-1-methyl-ethyl)-N4-(2,3,4,5,6-pentafluorophenyl)-1,3,5-triazine-2,4-diamine; 6-cyclohexyl-N2-(2,3,4,5,6-pentafluorophenyl)-1,3,5-triazine-2,4-diamine; 6-(2,6-difluorophenyl)-N2-(2,3,5,6-tetrafluorophenyl)-1,3,5-triazine-2,4-diamine; N2-(4-chloro-3,5,6-trifluoro-2-pyridyl)-6-(1-fluoro-1-methyl-ethyl)-1,3,5-triazine-2,4-diamine in 48-well plates. Therefore, M2 or M3 seeds are surface sterilized by stirring for 5 min in ethanol+water (70+30 by volume), rinsing one time with ethanol+water (70+30 by volume) and two times with sterile, deionized water. The seeds are resuspended in 0.1% agar dissolved in water (w/v) Four to five seeds per well are plated on solid nutrient medium consisting of half-strength murashige skoog nutrient solution, pH 5.8 (Murashige and Skoog (1962) Physiologia Plantarum 15: 473-497). Compounds are dissolved in dimethylsulfoxid (DMSO) and added to the medium prior solidification (final DMSO concentration 0.1%). Multi well plates are incubated in a growth chamber at 22° C., 75% relative humidity and 110 μmol Phot*m^−2*s^−1 with 14:10 h light:dark photoperiod. Growth inhibition is evaluated seven to ten days after seeding in comparison to wild type plants. Tolerance factors are calculated based on IC50 values of growth inhibition of transformed versus non-transformed Arabidopsis plants (Table 3).

The test system of test [4] is Arabidopsis mutant line Cesa1_G1009D. The test is described as above. To be noted: growth inhibition seven to ten days after seeding.
Text: as §2, §3

The subject of test [5] is wildtype Arabidopsis plants. Described as above. To be noted: growth inhibition seven to ten days after seeding.
Text: as §2, §3

Test [6] relates to Arabidopsis mutant line Cesa3_S1037F. The test is described as above. To be noted: growth inhibition seven to ten days after seeding.
Text: as §2, §3

Test [7] has as its system Arabidopsis mutant line Cesa1_P1010L. The test is described as above. To be noted: growth inhibition seven to ten days after seeding.
Text: as §2, §3

Test [8] concerns Arabidopsis mutant line Cesa3_S1040L. The test is described as above. To be noted: growth inhibition seven to ten days after seeding.
Text: as §2, §3

Test [9] deals with Arabidopsis mutant line Cesa1_G1013R. The test is described as above. To be noted: growth inhibition seven to ten days after seeding.
Text: as §2, §3

With `Nc1nc(Nc2c(F)c(F)c(F)c(F)c2F)nc(C2CCCC2)n1` [6-cyclopentyl-N4-(2,3,4,5,6-pentafluorophenyl)-1,3,5-triazine-2,4-diamine], the “Phytotox value on a scale from 0-100 (100 is 100% damage)” value stood at 0 in test [1] (0.25 g ai/ha); 5 in test [1] (0.98 g ai/ha); 20 in [1] (3.91 g ai/ha); 40 in test [1] (15.63 g ai/ha); 0 in test [2] (0.25 g ai/ha); 23 in test [2] (0.98 g ai/ha). Also, the results for the “Phytotox value on a scale from 0-100 (100 is 100% damage)” value in [2] (3.91 g ai/ha) and in [2] (15.63 g ai/ha) were 15 and 5, respectively. Also, the “Relative tolerance rate (wildtype = 1.0)” value worked out at 75 in [3]; 3 in test [4]; 1 in test [5]; 75 in test [6]; 3 in test [7]; 56 in [8]. Further, in test [9], the “Relative tolerance rate (wildtype = 1.0)” value is 25.
